Test results published in publication PMC5522996, “Big conductance calcium‐activated potassium channel openers control spasticity without sedation” (British Journal of Pharmacology, 2017).

How the values were obtained:
NE transporter = target: T1, NE transporter (Homo sapiens, UniProt P23975); assay: Receptor binding profile of VSN16R; conditions: 10µM VSN16R
T1 construct: purchased Cerep; Chantest; DiscoveRx; Multispan; MDS Pharma Services

healthy volunteers = assay: Phase I safety study, adverse events; type: in vivo, human

T1 sequence (P23975 whole entry): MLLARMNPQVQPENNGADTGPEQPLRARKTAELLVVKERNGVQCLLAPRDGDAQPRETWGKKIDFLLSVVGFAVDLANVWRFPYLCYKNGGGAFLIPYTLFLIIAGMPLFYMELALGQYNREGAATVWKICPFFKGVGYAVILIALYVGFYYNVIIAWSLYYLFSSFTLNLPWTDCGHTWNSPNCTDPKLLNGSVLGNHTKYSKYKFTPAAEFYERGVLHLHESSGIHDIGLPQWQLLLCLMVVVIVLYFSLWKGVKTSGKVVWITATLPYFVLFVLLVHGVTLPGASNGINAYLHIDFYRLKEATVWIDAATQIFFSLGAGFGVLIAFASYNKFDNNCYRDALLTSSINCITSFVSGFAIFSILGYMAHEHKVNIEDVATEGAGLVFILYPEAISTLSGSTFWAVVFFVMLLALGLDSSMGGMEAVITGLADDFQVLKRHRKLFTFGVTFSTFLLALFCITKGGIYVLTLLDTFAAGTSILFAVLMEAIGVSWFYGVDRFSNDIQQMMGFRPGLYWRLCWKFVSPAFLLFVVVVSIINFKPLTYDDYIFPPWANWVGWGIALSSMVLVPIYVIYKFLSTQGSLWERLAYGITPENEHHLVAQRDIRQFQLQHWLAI

**Q.** With C[C@H](CO)NC(=O)c1cccc(/C=C\CCCC(=O)N(C)C)c1 [VSN16R] as the compound, how does the Activity (NE transporter) read?
**A.** Negligible Activity

**Q.** And the “Vomiting or issues of taste” value (healthy volunteers; encapsulated drug, human studies)?
**A.** no vomiting or issues of taste were reported

**Q.** What about the Sedation in humans (healthy volunteers; in vivo) of the same compound?
**A.** does not induce sedation

**Q.** And the Serious adverse events (healthy volunteers; multiple ascending dose b.i.d.)?
**A.** no serious adverse events

**Q.** And the “Subjects with a possible side effect of the treatment” value (healthy volunteers; multiple ascending dose b.i.d., 3/18 subjects)?
**A.** 16.7%

**Q.** What about the “Subjects reporting adverse events” value (healthy volunteers; multiple ascending dose b.i.d., 6/18 subjects) of the same compound?
**A.** 33.3%

**Q.** What about the “Serious adverse drug‐related events” value (healthy volunteers; single ascending dose) of the same compound?
**A.** No serious adverse drug‐related events occurred

**Q.** What about the Adverse events reported (healthy volunteers; single ascending dose 25–800 mg) of the same compound?
**A.** 14.3%

**Q.** And the “Subjects with a possible associated effect with treatment” value (healthy volunteers; single ascending dose, 5/42 subjects)?
**A.** 11.9%
